Assays:
Type in all cases: biochemical
[1] = biological target: PI3K-gamma (Homo sapiens, UniProt P48736); assay: PI3K-gamma fluorescence polarization assay; conditions: PI3Kγ Avg. IC50
Outline: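 Reactions in 5 mM HEPES pH 7, 2.5 mM MgCl2, 25 μM ATP with 2.5 μM diC8-PI(4,5)P2 and 5 ng enzyme, 1 h at 25° C, then EDTA quench. Product detected by FP using GST-GRP1 PH domain (100 nM) and BODIPY-TMR-IP4 tracer (5 nM); final DMSO 0.8%.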

[2] = biological target: T1, human TOR (Homo sapiens, UniProt P42345); assay: mTOR enzyme assay (DELFIA, His6-S6K substrate); conditions: read-out: mTOR Kinase Avg. IC50
T1 construct: FLAG

[3] = biological target: PI3K-alpha (Homo sapiens, UniProt P42336); assay: PI3K-alpha fluorescence polarization assay; conditions: read-out: PI3Kα Avg. IC50
Sequence of PI3K-alpha (P42336 whole entry, species assumed): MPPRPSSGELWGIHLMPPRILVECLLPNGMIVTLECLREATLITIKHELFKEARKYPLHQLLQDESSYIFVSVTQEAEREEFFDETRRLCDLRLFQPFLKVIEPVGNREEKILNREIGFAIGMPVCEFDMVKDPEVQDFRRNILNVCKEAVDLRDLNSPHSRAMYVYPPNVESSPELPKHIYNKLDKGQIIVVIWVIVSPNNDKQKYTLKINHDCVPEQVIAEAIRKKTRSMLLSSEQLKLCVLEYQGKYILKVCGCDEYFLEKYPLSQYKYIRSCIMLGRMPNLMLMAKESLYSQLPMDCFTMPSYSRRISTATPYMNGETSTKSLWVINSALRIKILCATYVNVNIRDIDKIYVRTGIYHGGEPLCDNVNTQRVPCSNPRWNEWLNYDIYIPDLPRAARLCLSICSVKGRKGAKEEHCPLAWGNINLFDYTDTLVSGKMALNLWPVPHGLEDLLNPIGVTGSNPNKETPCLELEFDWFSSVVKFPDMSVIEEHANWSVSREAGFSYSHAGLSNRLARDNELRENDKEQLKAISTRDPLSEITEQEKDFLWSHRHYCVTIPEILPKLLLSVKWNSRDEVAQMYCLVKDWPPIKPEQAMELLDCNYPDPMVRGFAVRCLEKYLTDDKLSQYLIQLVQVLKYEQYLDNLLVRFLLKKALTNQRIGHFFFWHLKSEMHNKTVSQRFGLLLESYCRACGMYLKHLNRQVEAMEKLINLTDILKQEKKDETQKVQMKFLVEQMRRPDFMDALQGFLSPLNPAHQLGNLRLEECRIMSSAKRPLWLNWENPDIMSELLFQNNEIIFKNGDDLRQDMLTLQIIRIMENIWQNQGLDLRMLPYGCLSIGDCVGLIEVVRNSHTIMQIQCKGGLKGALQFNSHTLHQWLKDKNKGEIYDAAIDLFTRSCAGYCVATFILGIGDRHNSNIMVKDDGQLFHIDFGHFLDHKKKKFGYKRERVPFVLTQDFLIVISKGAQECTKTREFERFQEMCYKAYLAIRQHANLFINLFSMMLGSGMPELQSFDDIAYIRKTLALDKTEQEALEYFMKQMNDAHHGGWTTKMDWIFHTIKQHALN
Sequence of PI3K-alpha (P27986 whole entry partner, species assumed): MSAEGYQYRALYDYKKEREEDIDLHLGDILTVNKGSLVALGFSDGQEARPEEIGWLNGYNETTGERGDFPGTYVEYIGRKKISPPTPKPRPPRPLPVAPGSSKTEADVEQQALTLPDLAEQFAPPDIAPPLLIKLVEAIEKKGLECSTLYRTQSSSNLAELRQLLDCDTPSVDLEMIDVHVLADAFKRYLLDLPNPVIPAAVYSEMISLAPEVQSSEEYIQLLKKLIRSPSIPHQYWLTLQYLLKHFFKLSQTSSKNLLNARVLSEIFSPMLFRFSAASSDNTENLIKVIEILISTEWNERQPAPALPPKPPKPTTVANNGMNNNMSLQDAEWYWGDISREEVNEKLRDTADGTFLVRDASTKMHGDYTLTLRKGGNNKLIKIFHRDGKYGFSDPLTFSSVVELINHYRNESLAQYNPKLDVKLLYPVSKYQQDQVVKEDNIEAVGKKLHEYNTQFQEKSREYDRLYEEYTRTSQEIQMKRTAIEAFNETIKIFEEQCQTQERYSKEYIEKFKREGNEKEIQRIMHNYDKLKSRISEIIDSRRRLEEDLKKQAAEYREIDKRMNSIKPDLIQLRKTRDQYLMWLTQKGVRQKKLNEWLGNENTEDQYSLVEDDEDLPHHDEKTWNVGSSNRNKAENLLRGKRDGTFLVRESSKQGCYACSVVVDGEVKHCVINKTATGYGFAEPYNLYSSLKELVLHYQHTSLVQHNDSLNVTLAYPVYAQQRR

Sequence of PI3K-gamma (P48736 whole entry, species assumed, the tested form may be a part): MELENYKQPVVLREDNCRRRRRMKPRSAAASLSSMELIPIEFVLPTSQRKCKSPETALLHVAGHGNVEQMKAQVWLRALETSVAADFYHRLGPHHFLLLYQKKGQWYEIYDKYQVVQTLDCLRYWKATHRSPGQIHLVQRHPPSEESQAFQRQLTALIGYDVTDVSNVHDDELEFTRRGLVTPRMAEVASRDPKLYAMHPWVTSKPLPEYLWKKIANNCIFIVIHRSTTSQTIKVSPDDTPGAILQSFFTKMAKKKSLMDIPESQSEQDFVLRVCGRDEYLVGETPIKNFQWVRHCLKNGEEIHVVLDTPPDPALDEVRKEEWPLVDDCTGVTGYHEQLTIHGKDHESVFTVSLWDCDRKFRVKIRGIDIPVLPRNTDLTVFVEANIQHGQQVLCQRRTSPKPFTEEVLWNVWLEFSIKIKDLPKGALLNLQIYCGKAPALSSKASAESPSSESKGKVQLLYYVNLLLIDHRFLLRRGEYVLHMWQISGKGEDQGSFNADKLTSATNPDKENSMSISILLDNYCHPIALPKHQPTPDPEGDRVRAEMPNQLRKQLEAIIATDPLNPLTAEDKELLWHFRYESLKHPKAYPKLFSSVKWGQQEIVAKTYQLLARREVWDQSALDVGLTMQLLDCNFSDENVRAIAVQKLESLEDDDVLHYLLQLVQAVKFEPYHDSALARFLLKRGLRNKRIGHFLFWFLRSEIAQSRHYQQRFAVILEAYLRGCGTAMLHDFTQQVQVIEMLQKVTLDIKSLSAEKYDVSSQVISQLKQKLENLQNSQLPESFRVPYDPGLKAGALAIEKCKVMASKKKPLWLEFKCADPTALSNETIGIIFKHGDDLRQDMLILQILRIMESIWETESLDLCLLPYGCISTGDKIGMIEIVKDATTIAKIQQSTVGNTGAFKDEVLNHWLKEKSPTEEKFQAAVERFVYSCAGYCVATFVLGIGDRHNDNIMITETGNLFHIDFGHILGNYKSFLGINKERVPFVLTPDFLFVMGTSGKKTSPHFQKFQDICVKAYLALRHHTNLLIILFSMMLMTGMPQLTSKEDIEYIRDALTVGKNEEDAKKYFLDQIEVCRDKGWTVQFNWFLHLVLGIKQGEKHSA

Row | Compound | IC50 [1] [µM] | IC50 [2] [µM] | IC50 [3] [µM]
1 | COc1ccc(Br)c2c1C(=O)/C(=C/c1cn(C)c3cccc(-c4ccccc4)c13)O2 [Example 423, (2Z)-7-Bromo-4-methoxy-2-[(1-methyl-4-phenyl-1H-indol-3-yl)methylene]benzofuran-3(2H)-one] | > 10 | > 20 | > 10
2 | COc1ccc2c(c1)c(/C=C1\Oc3cc(CO)ccc3C1=O)cn2CCCN(C)C [Example 424, (2Z)-2-({1-[3-(dimethylamino)propyl]-5-methoxy-1H-indol-3-yl}methylene)-6-(hydroxymethyl)-1-benzofuran-3(2H)-one] | > 10 | > 20 | 4.02
3 | COc1ccc2c(c1)c(/C=C1\Oc3cc(-c4cnc(N)nc4)ccc3C1=O)cn2CCCN(C)C [Example 427, (2Z)-6-(2-Aminopyrimidin-5-yl)-2-({1-[3-(dimethylamino)propyl]-5-methoxy-1H-indol-3-yl}methylene)-1-benzofuran-3(2H)-one] | 3.03 | > 20 | 9.53
4 | COc1ccc2c(c1)c(/C=C1\Oc3cc(O)cc(Br)c3C1=O)c(C)n2CCN1CCN(C)CC1 [Example 429, (2Z)-4-Bromo-6-hydroxy-2-({5-methoxy-2-methyl-1-[2-(4-methylpiperazin-1-yl)ethyl]-1H-indol-3-yl}methylene)-1-benzofuran-3(2H)-one] | 3.13 | 0.5 | 0.0675
5 | COc1ccc2c(c1)c(/C=C1\Oc3cc(O)cc(O)c3C1=O)c(C(=O)N1CCCC1)n2CCN1CCN(C)CC1 [Example 430, (2Z)-4,6-Dihydroxy-2-({5-methoxy-1-[2-(4-methylpiperazin-1-yl)ethyl]-2-(pyrrolidin-1-ylcarbonyl)-1H-indol-3-yl}methylene)-1-benzofuran-3(2H)-one] | 0.197 | 0.115 | 0.0075
6 | COc1cc(O)cc2c1C(=O)/C(=C/c1c(-c3ccccc3)n(C)c3ccccc13)O2 [Example 432, (2Z)-6-Hydroxy-4-methoxy-2-[(1-methyl-2-phenyl-1H-indol-3-yl)methylene]benzofuran-3(2H)-one] | 8.14 | 2.03 | > 10
7 | COc1ccc2c(c1)SC(=Cc1c[nH]c3ccc(OC)cc13)C2=O [Example 433, 6-Methoxy-2-[(5-methoxy-1H-indol-3-yl)methylene]-1-benzothiophen-3(2H)-one] | > 10 | > 20 | > 10
8 | COc1ccc2[nH]cc(C=C3Oc4cc(S(C)(=O)=O)ccc4C3=O)c2c1 [Example 436, 2-[(5-Methoxy-1H-indol-3-yl)methylene]-6-(methylsulfonyl)-1-benzofuran-3(2H)-one] | > 10 | > 20 | > 10

Next, values leading:

Row | IC50 [1] [µM] | IC50 [2] [µM] | IC50 [3] [µM] | Compound
9 | 8.65 | > 20 | 5.04 | CN1CCN(CCn2cc(/C=C3\Oc4cc(O)cc(O)c4C3=O)c3c(-c4ccc(C(N)=O)cc4)cccc32)CC1 [Example 425, 4-{3-[(Z)-(4,6-Dihydroxy-3-oxo-1-benzofuran-2(3H)-ylidene)methyl]-1-[2-(4-methylpiperazin-1-yl)ethyl]-1H-indol-4-yl}benzamide]
10 | > 10 | > 20 | 6.25 | COc1ccc2c(c1)c(/C=C1\Oc3cc(-c4ccc(NC(C)=O)cc4)ccc3C1=O)cn2CCCN(C)C [Example 426, N-{4-[(2Z)-2-({1-[3-(Dimethylamino)propyl]-5-methoxy-1H-indol-3-yl}methylene)-3-oxo-2,3-dihydro-1-benzofuran-6-yl]phenyl}acetamide]
11 | > 5 | > 20 | > 5 | Cn1cc(/C=C2\Oc3c(Br)ccc(O)c3C2=O)c2c(-c3ccccc3)cccc21 [Example 428, (2Z)-7-Bromo-4-hydroxy-2-[(1-methyl-4-phenyl-1H-indol-3-yl)methylene]benzofuran-3(2H)-one]
12 | > 10 | > 20 | > 10 | COc1ccc2[nH]cc(C=C3Oc4cc(SC)ccc4C3=O)c2c1 [Example 434, 2-[(5-Methoxy-1H-indol-3-yl)methylene]-6-(methylthio)-1-benzofuran-3(2H)-one]
